Measurements published in patent US20170281587A1, “ERYTHROCYTE FUNCTION IMPROVING AGENT” (Glico Nutrition Co., Ltd., priority 2014, published 2017).
Values joined by “and” are separate entries in the source; they are usually repeats but may differ in a detail not shown here. Identical values can stand only once.

How the values were obtained:
red blood cells [1] = settings: cited from earlier work
red blood cells [2] = settings: in vivo, po
Method: In this test, paprika carotenoids rich in carotenoids having 3,6-epoxy end groups or 5-membered ring end groups were orally administered to an adult, and cucurbitaxanthin A, capsanthin, capsorubin, and capsanthin 3,6-epoxide were evaluated for their ability to migrate into red blood cells. A specific testing method was as described below.
Initially, 15 g of a paprika pigment emulsified preparation (PapriX; total amount of carotenoids: 10 mg/g) from Glico Nutrition Co., Ltd., 30 g of dextrin, 70 g of sugar, and 3 g of citric acid were dissolved in 1 L of water to prepare a test beverage containing the paprika carotenoids. The paprika pigment emulsified preparation contained 0.053 mass % of cucurbitaxanthin A, 0.40 mass % of capsanthin, 0.021 mass % of capsorubin, and 0.034 mass % of capsanthin 3,6-epoxide, and the test beverage contained 0.00079 mass % of cucurbitaxanthin A, 0.0060 mass % of capsanthin, 0.00031 mass % of capsorubin, and 0.00051 mass % of capsanthin 3,6-epoxide.
Before the beginning of the ingestion and after 4 weeks from the ingestion, blood was collected to obtain blood samples. Red blood cells were separated from the obtained blood samples, and the carotenoids (capsanthin 3,6-epoxide, cucurbitaxanthin A, capsanthin, and capsorubin) present in red blood cells were quantified by HPLC.

[3] = 30 healthy males and females, oral administration for 12 weeks

| ability to migrate into red blood cells (migration ratio into red blood cells) (red blood cells [2]) | Structure (SMILES) | astaxanthin in the red blood cells (red blood cells [1]; [3]) | lipid peroxides in the red blood cells (red blood cells [1]; [3]) | migration ratio into red blood cells (red blood cells [1]; day 84 after the ingestion, calculated from literature disclosure) |
| --- | --- | --- | --- | --- |
|  | CC1=C(/C=C/C(C)=C/C=C/C(C)=C/C=C/C=C(C)/C=C/C=C(C)/C=C/C2=C(C)C(=O)[C@@H](O)CC2(C)C)C(C)(C)C[C@H](O)C1=O [astaxanthin] | an increase in astaxanthin | a decrease in lipid peroxides | 0.0089% and 0.0057% |
| little migration into red blood cells | CC(/C=C/C=C(C)/C=C/C(=O)[C@]1(C)C[C@@H](O)CC1(C)C)=C\C=C\C=C(C)\C=C\C=C(C)\C=C\[C@@]12O[C@@H](CC1(C)C)C[C@@]2(C)O [capsanthin 3,6-epoxide] |  |  |  |
| little migration into red blood cells | CC1=C(/C=C/C(C)=C/C=C/C(C)=C/C=C/C=C(C)/C=C/C=C(C)/C=C/C(=O)[C@]2(C)C[C@@H](O)CC2(C)C)C(C)(C)C[C@H](O)C1 [capsanthin] |  |  |  |
| little migration into red blood cells | CC(/C=C/C=C(C)/C=C/C(=O)[C@]1(C)C[C@@H](O)CC1(C)C)=C\C=C\C=C(C)\C=C\C=C(C)\C=C\C(=O)[C@]1(C)C[C@@H](O)CC1(C)C [capsorubin] |  |  |  |

| Structure (SMILES) | ability to migrate into red blood cells (migration ratio into red blood cells) (red blood cells [2]) | astaxanthin in the red blood cells (red blood cells [1]; [3]) | lipid peroxides in the red blood cells (red blood cells [1]; [3]) | migration ratio into red blood cells (red blood cells [1]; day 84 after the ingestion, calculated from literature disclosure) |
| --- | --- | --- | --- | --- |
| CC1=C(/C=C/C(C)=C/C=C/C(C)=C/C=C/C=C(C)/C=C/C=C(C)/C=C/[C@@]23O[C@@H](CC2(C)C)C[C@@]3(C)O)C(C)(C)C[C@H](O)C1 [cucurbitaxanthin A, (3S,3′R,5R,6R)-3,6-epoxy-5,6-dihydro-β,β-carotene-3′,5-diol] | markedly high ability to migrate into red blood cells |  |  |  |
